From patent US20240123079A1 (Seagen Inc., priority 2021, published 2024)

Experiments:
[1] = tested on: CT26 cancer cells; assay: CT26 tumor model, in vivo anti-tumor activity; parameters: species or system mouse; details: CT26 tumor-bearing mice, q7dx3
Procedure: CT26 cancer cells (ATCC) were cultured in RPMI 1640 modified with 1 mM Sodium Pyruvate, 10 mM HEPES, 2.8 mL 45% Glucose (1.25 g) and supplemented with 10% fetal bovine serum and 1% Pen/Strep/Glutamine. CT26 cancer cells were implanted ([…] in 200 uL serum-free RPMI 1640) subcutaneously into Balb/c mice.

[2] = tested on: human cancer cell lines; assay: Cancer cell direct cytotoxicity assay, panel statement; type: cell-based; details: panel of human cancer cell lines
Procedure: (§1) Bystander activity of ADCs was evaluated using Renca cancer cells and THP1-Dual™ cells (InvivoGen) which contain an IRF-Lucia luciferase reporter. Cells were cultured in RPMI-1640 (Gibco) with 10% heat-inactivated fetal bovine serum, Pen-Strep (100 U/ml-100 μg/ml, Gibco), HEPES (10 mM, Gibco), sodium pyruvate (1 mM, Gibco), MEM non-essential amino acids (1×, Gibco), GlutaMAX (1×, Gibco), and beta-mercaptoethanol (55 μM, Gibco). Renca cells were plated in a 96-well flat bottom tissue culture-treated clear polystyrene plate (Corning Costar #3596) at 50,000 cells per well in 100 μL. On the day following the initial plating, 50,000 THP1-Dual™ cells were added to each well with the indicated concentration of ADC in a total volume of 200 μL. Supernatant was harvested at 48 hours post addition of the THP1-Dual™ cells. To measure Lucia reporter signal, 10 μL of supernatant was combined with 40 μL of QUANTI-Luc™ Luminescence assay reagent (Invivogen PN: rep-qlc1) in a 96-well clear flat bottom tissue culture-treated black polystyrene plate (Corning Costar PN: 3603) and read on a Perkin Elmer Envision plate reader. In some experiments, HEK 293T cells engineered to express a murine protein typically expressed by immune cells (target antigen C— an immune cell antigen) were plated as above instead of Renca tumor cells. Cancer Cell Direct Cytotoxicity Assay
Cancer cells were counted and plated in 40 μL complete growth media in 384-well, white-walled tissue culture treated plates (Corning). Cell plates were incubated at 37° C. and with 5% CO2 overnight to allow the cells to equilibrate. […] The luminescence of the samples was measured using an EnVision Multimode plate reader (Perkin Elmer, Waltham, MA). […]
Compound 12a was conjugated to both targeted and non-binding antibodies using a variety of non-cleavable linkers (12, 17, 19-24) and the resulting ADCs were assessed for their ability to activate THP1-Dual™ reporter cells. […] We also evaluated the ability of these linkers to directly kill cancer cells when conjugated to targeted mAbs binding tumor antigen A or antigen B (CD30).

[3] = tested on: MDAMB231; assay: Cancer cell direct cytotoxicity assay (CellTiter-Glo), MDAMB231; type: cell-based; details: Homo sapiens, MDA-MB-231; MDAMB231, 96 h, free compound; read-out: Compound X50
Procedure: as §1
(§2) Cancer cells were counted and plated in 40 μL complete growth media in 384-well, white-walled tissue culture treated plates (Corning). Cell plates were incubated at 37° C. and with 5% CO2 overnight to allow the cells to equilibrate. Stock solutions containing ADCs or free drugs were serially diluted in RPMI-1640+20% fetal bovine serum (FBS). 10 μL of each concentration were then added to each cell plate in duplicate. Cells were then incubated at 37° C. and with 5% CO2 for 96 hours, upon which, the cell plates were removed from the incubator and allowed to cool to room temperature for 30 minutes prior to analysis. […] The luminescence of the samples was measured using an EnVision Multimode plate reader (Perkin Elmer, Waltham, MA). […]

[4] = tested on: A2058; assay: Cancer cell direct cytotoxicity assay (CellTiter-Glo), A2058; type: cell-based; details: Homo sapiens; A2058, 96 h, free compound; read-out: Compound X50
Procedure: as §1, §2

[5] = tested on: BxPC3; assay: Cancer cell direct cytotoxicity assay (CellTiter-Glo), BxPC3; type: cell-based; details: Homo sapiens, BXPC-3; BxPC3, 96 h, free compound; read-out: Compound X50
Procedure: as §1, §2

[6] = tested on: L540cy; assay: Cancer cell direct cytotoxicity assay (CellTiter-Glo), L540cy; type: cell-based; details: Homo sapiens, 96 h, free compound, read-out: Compound X50
Procedure: as §1, §2

[7] = tested on: Ls174T; assay: Cancer cell direct cytotoxicity assay (CellTiter-Glo), Ls174T; type: cell-based; details: Homo sapiens, 96 h, free compound, read-out: Compound X50
Procedure: as §1, §2

[8] = tested on: 786-O; assay: Cancer cell direct cytotoxicity assay (CellTiter-Glo), 786-O; type: cell-based; details: Homo sapiens, 786-0, 96 h, free compound, read-out: Compound X50
Procedure: as §1, §2

[9] = tested on: DELBVR; assay: Cancer cell direct cytotoxicity assay (CellTiter-Glo), DELBVR; type: cell-based; details: Homo sapiens, 96 h, free compound, read-out: Compound X50
Procedure: as §1, §2

[10] = tested on: wild type (WT) murine bone marrow-derived macrophages; assay: Bone marrow-derived macrophage assay, wild type; type: cell-based, mouse; details: 24 h
Procedure: Bone Marrow-Derived Macrophage Assay
Potency of the compounds described herein was evaluated using mouse bone-marrow derived macrophages cultured from wild type (C57BL/6J, the Jackson Laboratory #000664) or STING-deficient (C57BL/6J-Sting1^gt/J, the Jackson Laboratory #017537) mice. Briefly, mouse bone marrow cells were cultured for 7-10 days in RPMI-1640 (Gibco) with 10% heat-inactivated fetal bovine serum, Pen-Strep (100 U/mL-100 μg/mL, Gibco), HEPES (10 mM, Gibco)), sodium pyruvate (1 mM, Gibco), GlutaMAX (1×, Gibco), beta-mercaptoethanol (55 μM, Gibco) and 20-40 ng/mL murine M-CSF (Peprotech, #315-02). Cells were plated in a 96-well flat bottom tissue culture-treated clear polystyrene plate (Corning Costar #3596) at ˜100,000 cells per well in 200 μL with the indicated concentration of the compound. The supernatant was harvested at 24 hours and cytokines were measured using a Milliplex MAP mouse cytokine/chemokine magnetic bead panel assay kit (MCYTOMAG-70k custom 11-plex kit: MCP1, MIP1α, MIP1β, TNFα, IFNγ, IL-10, IL-12p70, IL-1β, IL-6, IP10, RANTES) and analyzed using a Luminex™ MAGPIX™ Instrument System.

[11] = tested on: Karpas299; assay: Cancer cell direct cytotoxicity assay (CellTiter-Glo), Karpas299; type: cell-based; details: Homo sapiens, KARPAS-299; Karpas299, 96 h, free compound; read-out: Compound X50
Procedure: as §1, §2

Compound | tumor growth delay [1] | direct cytotoxic activity on cancer cell lines [2] | IC50 [3] [nM] | IC50 [4] [nM] | IC50 [5] [nM] | IC50 [6] [nM] | IC50 [7] [nM] | IC50 [8] [nM] | IC50 [9] [nM] | cytokine production [10] | IC50 [11] [nM]
CCn1nc(C)cc1C(=O)Nc1nc2cc(C(N)=O)cc(O)c2n1C/C=C/Cn1c(NC(=O)c2cc(C)nn2CC)nc2cc(C(N)=O)cc(OC)c21 [Compound 1, (E)-1-(4-(5-carbamoyl-2-(1-ethyl-3-methyl-1H-pyrazole-5-carboxamido)-7-hydroxy-1H-benzo[d]imidazol-1-yl)but-2-en-1-yl)-2-(1-ethyl-3-methyl-1H-pyrazole-5-carboxamido)-7-methoxy-1H-benzo[d]imidazole-5-carboxamide] | minimal tumor growth delay | demonstrated direct cytotoxic activity on a subset of cancer cell lines | > 1000 | > 1000 | > 1000 | 31 | > 1000 | > 1000 | 16 | induced cytokine production | > 1000
CCn1nc(C)cc1C(=O)Nc1nc2cc(C(N)=O)cc(OC)c2n1C/C=C/Cn1c(NC(=O)c2cc(C)nn2CC)nc2cc(C(N)=O)cc(OCCCNC)c21 [Compound 12a] | – | demonstrated direct cytotoxic activity on a subset of cancer cell lines | > 1000 | > 1000 | > 1000 | 83 | > 1000 | > 1000 | 111 | induced cytokine production | > 1000
